{"source": "patent US20010053796A1", "about": "“Delta-aminolevulinic acid for prevention and treatment of infection microorganisms and parasite” (priority 2000, published 2001)", "key": {"[1]": {"tested_on": "Vibrio anguillarum", "assay": "Treatment effect of infected fry by oral administration in feed", "type": "in vivo, Sebastes schlegeli", "settings": "50 fish, Bastardhalibut", "method": "(§1) In this example, fry of Bastardhalibut and Sebastes schlegeli (mean body weight 2 g), 50 per each breeding tank, were preliminary-bred for 1 week and stabilized. […] The artificial infection methods were carried out through the digestion method. Pathogenic organisms were applied into fish tanks and introduced into seawater for an hour, wherein the concentration of organisms adjusted to 10^4 CFU/mL. Treatment conditions are as follows; after artificial infection, infected fish were moved to fish tanks and kept in the infection period for 3 days. On the fourth day of infection, 0.1˜50 ppm of δ-aminolevulinic acid for feed were added. The fish were bred for 2 weeks after exchanging with clean seawater and the mortality of fish according to infection was monitored. In the control groups, after each bacteria were identically infected through digestion method, mortality of Bastardhalibut and Sebastes schlegeli according to bacteria infection was identified while breeding with marketing assorted feed without δ-aminolevulinic acid. As a result of this experiment, δ-aminolevulinic acid-treated groups have shown high viability in both Bastardhalibut (Table 20˜Table 23) and Sebastes schlegeli (Table 24˜Table 27)."}, "[2]": {"tested_on": "Edwardsiella tarda", "assay": "Treatment effect of infected fry by oral administration in feed", "type": "in vivo, Sebastes schlegeli", "settings": "50 fish, Bastardhalibut", "method": "as §1"}, "[3]": {"tested_on": "Streptococcus sp.", "assay": "Treatment effect of infected fry by oral administration in feed", "type": "in vivo, Sebastes schlegeli", "settings": "50 fish, Bastardhalibut", "method": "as §1"}, "[4]": {"tested_on": "Pseudomonas sp.", "assay": "Treatment effect of infected fry by oral administration in feed", "type": "in vivo, Sebastes schlegeli", "settings": "50 fish, Bastardhalibut", "method": "as §1"}, "[5]": {"tested_on": "Vibrio anguillarum", "assay": "MIC assay by flat drug disc method", "type": "cell-based", "settings": "prepared by the inventors", "method": "(§2) Pathogenic index bacteria used in this experiment are Edwardsiella tard, Streptococcus sp., Staphylococcus sp., Staphylococcus epidermidis, Pseudomonas sp., Vibrio anguillarum which are collected from the marine fish farm nearby Yeosu. In solid culture, they were cultured in TSA (tryptic soy agar) supplemented with 0.2% NaCl flat media and in liquid culture, they were prepared by culturing in BHI broth for 24 hrs and setting the O.D. value as 1.0. δ-aminolevulinic acid used in this experiment were one on the market (Sigma) and one formulated by inventors of the present invention (Korean patent application No. 1998-41898). Each 0.167 g δ-aminolevulinic acid were dissolved in 1.0 mL sterilized distilled water was used as undiluted solution. 1.0 M δ-aminolevulinic acid was 2-fold diluted with BHI broth by stages up to 64-fold and prepared for test solution to examine pathogenic bacteria proliferation-prohibiting effect. […] In control group, instead of δ-aminolevulinic acid, BHI broth bacteria suspension were mixed with (1:1) and then observed with the same method above. MIC assay by δ-aminolevulinic acid for major pathogenic bacteria of marine cultivating fishes, Edwardsiella tard, Streptococcus sp., Staphylococcus sp., Staphylococcus epidermidis, Pseudomonas sp., Vibrio anguillarum was carried out by flat drug disc method. 100 μL of each bacteria in a culture solution was mixed with fixed amount of top agar and coated to TSA agar. 1.0 M δ-aminolevulinic acid solution was diluted by 2 folds in PBS and 10 μL of each dilution were absorbed to sterilized disc. After incubation at 23˜25° C. for 2˜3 days, antibacterial effect was indicated by measuring the size (mm) of clear zone. In control group, PBS was absorbed into disc instead of δ-aminolevulinic acid dilution solution with the same amount and observed. From the result of this experiment using δ-aminolevulinic acid on the market, proliferation-inhibiting effects of pathogenic bacteria according to δ-aminolevulinic acid concentration are shown in Table 2a (Edwardsiella tard) and Table 2b (Streptococcus sp.). Below 1/32 fold (31 mM) of δ-aminolevulinic acid dilution rate, proliferation of both bacteria was inhibited. […] The experimental result of δ-aminolevulinic acid prepared by the inventors has shown in Table 3 and no difference in effects from δ-aminolevulinic acid on the market."}, "[6]": {"tested_on": "Edwardsiella tarda", "assay": "MIC assay by flat drug disc method", "type": "cell-based", "settings": "prepared by the inventors", "method": "as §2"}, "[7]": {"tested_on": "Pseudomonas sp.", "assay": "MIC assay by flat drug disc method", "type": "cell-based", "settings": "prepared by the inventors", "method": "as §2"}, "[8]": {"tested_on": "Iridovirus", "assay": "Treatment effect of virus-infected fish", "type": "in vivo, Pagrus major", "settings": "for mortality during 10 days: 30 fish", "excerpt": "In this present example, as carried out in Experiment 2 of Example 3, from the result that inhibition effect of virus infection in vitro by δ-aminolevulinic acid treatment was ascertained, fish whose diseases were in progress by virus infection, decrease in the mortality of infected fish body was ascertained when treated with δ-aminolevulinic acid. Pagrus major diagnosed by the PCR method among a school of Iridovirus-infected fish from a fish farm nearby Yeosu, 30 of each were separated and contained in […]. They were divided to group A, B, C and control group. Temporary changes in mortality was ascertained in 10 ppm δ-aminolevulinic acid-treated A group, 1.0 ppm δ-aminolevulinic acid-treated B group, 0.1 ppm δ-aminolevulinic acid-treated C group and untreated control group by using δ-aminolevulinic acid produced by the inventor. Each δ-aminolevulinic acid-treated group was treated 3 times in […] and 10 days results were reported. In the case of actual fish farms, the mortality by virus infection reaches up to 70%. However, as shown in the result of infected fish of Table 28, in the present experimental condition, cumulative mortality of infected fish without treatment has reached up to 50% until 10th day of experimental period. In δ-aminolevulinic acid-treated groups, low mortalities of 17%, 17% and 27% was shown in the condition of A, B and C groups during 10 days, respectively."}, "[9]": {"tested_on": "FHM (Fathead Minnow Epithelioma)", "settings": "24 h", "procedure": "δ-aminolevulinic acid feed were prepared to 1.0 M concentration (0. 167 g/mL HBSS) and diluted by 10-fold dilution method. 100 μl of each fish cell line suspension of 2.5×10^5 were placed into 96-well microplate and then, 100 μl of each of the resulting diluted solution, 4 well/dilution unit, were added respectively. Fish cell lines, which were used for this cell toxicity experiment of δ-aminolevulinic acid, were RTG-2 (Rainbow Trout Gonad), FHM (Fathead Minnow Epithelioma) and CHSE (Chinook Salmon Embryo) lotted out from Dr. M. Yoshimizu of the Department of Fisheries, Hokkaido University, Japan. For these experimental cells, 100 U/mL penicillin (Sigma), 100 μl/mL streptomycin (Sigma) and MEM media supplemented with 5% fetal bovine serum (FBS, Gibco) for cell culture were used. Cultured cells in 96-well microplate was incubated for 3 hrs at 15° C. and δ-aminolevulinic acid were added to wells at amounts of 100 μl of 0, 1.0, 10, 50 and 100 mM and incubated for 24 hrs at 18° C. As a control group, instead of δ-aminolevulinic acid, HBSS was added at the same amount. […] Absorbance was measured with an ELISA reader at 570 μl."}, "[10]": {"settings": "feed 0.1 ppm from 4th day of infection"}, "[11]": {"settings": "feed 1.0 ppm from 4th day of infection"}, "[12]": {"settings": "feed 10 ppm from 4th day of infection"}, "[13]": {"settings": "feed 50 ppm from 4th day of infection"}}}
{"smiles": "NCC(=O)CCC(=O)O", "note": "[δ-aminolevulinic acid]", "values": [{"measurement": "Viability", "setting": "[1]; [10]", "value": 50, "unit": "%"}, {"measurement": "Viability", "setting": "[1]; [11]", "value": 74, "unit": "%"}, {"measurement": "Viability", "setting": "[1]; [12]", "value": 84, "unit": "%"}, {"measurement": "Viability", "setting": "[1]; [13]", "value": 86, "unit": "%"}, {"measurement": "Viability", "setting": "[2]; [10]", "value": 52, "unit": "%"}, {"measurement": "Viability", "setting": "[2]; [11]", "value": 62, "unit": "%"}, {"measurement": "Viability", "setting": "[2]; [12]", "value": 68, "unit": "%"}, {"measurement": "Viability", "setting": "[2]; [13]", "value": 88, "unit": "%"}, {"measurement": "Viability", "setting": "[3]; [10]", "value": 44, "unit": "%"}, {"measurement": "Viability", "setting": "[3]; [11]", "value": 66, "unit": "%"}, {"measurement": "Viability", "setting": "[3]; [12]", "value": 72, "unit": "%"}, {"measurement": "Viability", "setting": "[3]; [13]", "value": 82, "unit": "%"}, {"measurement": "Viability", "setting": "[4]; [10]", "value": 52, "unit": "%"}, {"measurement": "Viability", "setting": "[4]; [11]", "value": 78, "unit": "%"}, {"measurement": "Viability", "setting": "[4]; [12]", "value": 86, "unit": "%"}, {"measurement": "Viability", "setting": "[4]; [13]", "value": 84, "unit": "%"}, {"measurement": "MIC", "setting": "[5]", "value": 29.9, "unit": "mg/L"}, {"measurement": "MIC", "setting": "[6]", "value": 56, "unit": "mg/L"}, {"measurement": "MIC", "setting": "[7]", "value": 42.2, "unit": "mg/L"}, {"measurement": "Viable Fish number According to Elapsed days After Treatment", "setting": "[8]; 0.1 ppm, day 0", "value": 30}, {"measurement": "Viable Fish number According to Elapsed days After Treatment", "setting": "[8]; 0.1 ppm, day 1", "value": 25}, {"measurement": "Viable Fish number According to Elapsed days After Treatment", "setting": "[8]; 0.1 ppm, day 2", "value": 25}, {"measurement": "Viable Fish number According to Elapsed days After Treatment", "setting": "[8]; 0.1 ppm, day 3", "value": 23}, {"measurement": "Viable Fish number According to Elapsed days After Treatment", "setting": "[8]; 0.1 ppm, day 4", "value": 23}, {"measurement": "Viable Fish number According to Elapsed days After Treatment", "setting": "[8]; 0.1 ppm, day 5", "value": 23}, {"measurement": "Viable Fish number According to Elapsed days After Treatment", "setting": "[8]; 0.1 ppm, day 6", "value": 22}, {"measurement": "Viable Fish number According to Elapsed days After Treatment", "setting": "[8]; 0.1 ppm, day 7", "value": 22}, {"measurement": "Viable Fish number According to Elapsed days After Treatment", "setting": "[8]; 0.1 ppm, day 8", "value": 22}, {"measurement": "Viable Fish number According to Elapsed days After Treatment", "setting": "[8]; 0.1 ppm, day 9", "value": 22}, {"measurement": "Viable Fish number According to Elapsed days After Treatment", "setting": "[8]; 0.1 ppm, day 10", "value": 22}, {"measurement": "Viable Fish number According to Elapsed days After Treatment", "setting": "[8]; 1.0 ppm, day 0", "value": 30}, {"measurement": "Viable Fish number According to Elapsed days After Treatment", "setting": "[8]; 1.0 ppm, day 1", "value": 28}, {"measurement": "Viable Fish number According to Elapsed days After Treatment", "setting": "[8]; 1.0 ppm, day 2", "value": 26}, {"measurement": "Viable Fish number According to Elapsed days After Treatment", "setting": "[8]; 1.0 ppm, day 3", "value": 26}, {"measurement": "Viable Fish number According to Elapsed days After Treatment", "setting": "[8]; 1.0 ppm, day 4", "value": 26}, {"measurement": "Viable Fish number According to Elapsed days After Treatment", "setting": "[8]; 1.0 ppm, day 5", "value": 25}, {"measurement": "Viable Fish number According to Elapsed days After Treatment", "setting": "[8]; 1.0 ppm, day 6", "value": 25}, {"measurement": "Viable Fish number According to Elapsed days After Treatment", "setting": "[8]; 1.0 ppm, day 7", "value": 25}, {"measurement": "Viable Fish number According to Elapsed days After Treatment", "setting": "[8]; 1.0 ppm, day 8", "value": 25}, {"measurement": "Viable Fish number According to Elapsed days After Treatment", "setting": "[8]; 1.0 ppm, day 9", "value": 25}, {"measurement": "Viable Fish number According to Elapsed days After Treatment", "setting": "[8]; 1.0 ppm, day 10", "value": 25}, {"measurement": "Viable Fish number According to Elapsed days After Treatment", "setting": "[8]; 10 ppm, day 0", "value": 30}, {"measurement": "Viable Fish number According to Elapsed days After Treatment", "setting": "[8]; 10 ppm, day 1", "value": 28}, {"measurement": "Viable Fish number According to Elapsed days After Treatment", "setting": "[8]; 10 ppm, day 2", "value": 26}, {"measurement": "Viable Fish number According to Elapsed days After Treatment", "setting": "[8]; 10 ppm, day 3", "value": 26}, {"measurement": "Viable Fish number According to Elapsed days After Treatment", "setting": "[8]; 10 ppm, day 4", "value": 26}, {"measurement": "Viable Fish number According to Elapsed days After Treatment", "setting": "[8]; 10 ppm, day 5", "value": 26}, {"measurement": "Viable Fish number According to Elapsed days After Treatment", "setting": "[8]; 10 ppm, day 6", "value": 26}, {"measurement": "Viable Fish number According to Elapsed days After Treatment", "setting": "[8]; 10 ppm, day 7", "value": 25}, {"measurement": "Viable Fish number According to Elapsed days After Treatment", "setting": "[8]; 10 ppm, day 8", "value": 25}, {"measurement": "Viable Fish number According to Elapsed days After Treatment", "setting": "[8]; 10 ppm, day 9", "value": 25}, {"measurement": "Viable Fish number According to Elapsed days After Treatment", "setting": "[8]; 10 ppm, day 10", "value": 25}, {"measurement": "mortality during 10 days", "setting": "[8]; A group, 10 ppm", "value": 17, "unit": "%"}, {"measurement": "mortality during 10 days", "setting": "[8]; B group, 1.0 ppm", "value": 17, "unit": "%"}, {"measurement": "mortality during 10 days", "setting": "[8]; C group, 0.1 ppm", "value": 27, "unit": "%"}, {"measurement": "safe range of toxicity", "setting": "[9]", "value": "below 10 mM"}]}
